From patent publication US12201594B2, “Methods and compositions for treatment of pain using capsaicin” (Centrexion Therapeutics Corporation, priority 2017, dated 2025)

Columns and labels:
[1] = tested on: osteoarthritic knee joint pain; assay: Patient-specific Functional Scale (PSFS), Example 1; type: in vivo, human
Protocol: (§1) Human patients aged 45-80 years with chronic knee osteoarthritis, stable moderate to severe pain, and intolerability to analgesics were randomized to receive a single intra-articular injection of placebo into the osteoarthritic knee, a single intra-articular injection of a 0.5 mg dose of capsaicin into the osteoarthritic knee, or a single intra-articular injection of a 1.0 mg dose of capsaicin into the osteoarthritic knee.
(§2) The test article (i.e., placebo or capsaicin) was administered according to the following procedure: (i) applying for a duration of about 15 minutes a cooling article to an exterior surface of a human patient's knee presenting with osteoarthritic knee joint pain, wherein the cooling article was a Breg cooling wrap cooled by circulating ice-cold water, (ii) administering by injection into the intra-articular space of the joint of the knee a 15 mL aliquot of a 2% w/w lidocaine solution in saline, (iii) applying for a duration of about 30 minutes a cooling article to an exterior surface of the knee, wherein the cooling article was a Breg cooling wrap cooled by circulating ice-cold water, (iv) administering by injection into the intra-articular space of the joint of the knee a 4 mL aliquot of a solution containing water, polyethylene glycol having a number-average molecular weight of about 300 g/mol, and for patients receiving capsaicin a dose of capsaicin in an amount of 0.5 mg or 1.0 mg, and (v) applying a cooling article to an exterior surface of the knee for a duration of at least about 30 minutes (and up to 60 minutes upon patient request), wherein the cooling article was a Breg cooling wrap cooled by circulating ice-cold water.
(§3) Patients completed Patient Global Impression of Change (PGIC; change vs baseline in index knee on 7-point scale; 1=very much improved; 7=very much worse, with scores of 1 or 2 indicating significant improvement) and Patient-specific Functional Scale (PSFS; rate≤3 important activities difficult to perform due to index knee pain on 0-10 scale; 0-able to perform; 10=unable to perform) at scheduled visits. Odds ratios for PGIC scores were calculated with chi-square tests. Changes in Western Ontario and McMaster Universities Osteoarthritis Index (WOMAC) B stiffness subscale and WOMAC C function subscale through week 24 were also assessed. PSFS, WOMAC B, and WOMAC C scores were evaluated using a mixed model for repeated measures. Statistical tests were 2-sided (alpha, P=0.10).

[2] = tested on: osteoarthritic knee joint pain; assay: Patient Global Impression of Change (PGIC), Example 1; type: in vivo, human
Protocol: as §1, §2, §3

[3] = tested on: osteoarthritic knee joint pain; assay: WOMAC B stiffness subscale and WOMAC C function subscale, Example 1; type: in vivo, human; conditions: 1.0 mg dose; through week 16
Protocol: as §1, with “knee. […]” for “knee.”
as §3, with “Statistical tests were 2-sided (alpha, P=0.10).” left out

[4] = tested on: human patients experiencing osteoarthritic knee joint pain; assay: Safety assessments (TEAEs, SAEs, procedural pain ratings) after single intra-articular injection of capsaicin with cooling and lidocaine, Example 1; type: in vivo; conditions: for All TEAEs / Arthralgia / Hepatic enzyme increased / Influenza / Joint effusion / Nasopharyngitis / Upper respiratory tract infection: through 24 weeks
Protocol: as §2, with “Human patients experiencing osteoarthritic knee joint pain received either placebo, a 0.5 mg intra-articular injection of capsaicin into the osteoarthritic knee joint,” for “The test article (i.e., placebo”, “a 1.0 mg intra-articular injection of capsaicin into the osteoarthritic knee joint. Transient burning sensation due to administration of capsaicin” for “capsaicin)”, “attenuated by administering capsaicin” for “administered”, “60)” for “60”, “water. Further description of experimental procedures and results are provided below:” for “water.”
as §1, §2
Safety assessments included treatment-emergent adverse events (TEAEs), serious AEs (SAEs), laboratory abnormalities, and procedural pain ratings (none, mild, moderate, moderately severe, severe). The procedure pain ratings characterize the extent of transient burning sensation experienced by patients due to administration of capsaicin.

[5] = tested on: pain due to an intermetatarsal neuroma; assay: Average walking pain due to intermetatarsal neuroma (NPRS) after two doses of trans-capsaicin, Example 3; type: in vivo, human; conditions: 200 μg
Protocol: Twenty-seven adult, human patients experiencing pain due to an intermetatarsal neuroma were treated by administering a first dose of trans-capsaicin (200 μg of trans-capsaicin) and then, after at least 11 weeks, administered a second dose of trans-capsaicin (200 μg of trans-capsaicin). Patients rated their average walking pain due to the intermetatarsal neuroma on a Numeric Pain Rating Scale (NPRS), where pain is characterized by the patient on a scale of zero to ten (with zero being “no pain”, and ten being “worst possible pain”). Patients rated their average walking pain due to the intermetatarsal neuroma on (i) just prior to receiving the injection of trans-capsaicin and (ii) four (4) weeks after receiving each injection of trans-capsaicin. Patients reported a reduction in average walking pain due to the intermetatarsal neuroma when measured at four weeks after injection of trans-capsaicin for each administration of trans-capsaicin. […]
Pain due to the intermetatarsal neuroma was evaluated by having patients rate their average walking pain due to the intermetatarsal neuroma on a Numeric Pain Rating Scale (NPRS), where pain is characterized by the patient on a scale of zero to ten (with zero being “no pain”, and ten being “worst possible pain”). […]

[6] = 2 hours after injection, all groups (capsaicin or placebo)
[7] = either 0.5 mg or 1.0 dose (n = 105)

COc1cc(CNC(=O)CCCCC=CC(C)C)ccc1O [Capsaicin, N-[(4-hydroxy-3-methoxyphenyl)methyl]-8-methylnon-6-enamide]
PSFS: LSMD versus Placebo ([1]; 0.5 mg dose, week 4): 0.01
PSFS: LSMD versus Placebo ([1]; 0.5 mg dose, week 8): −0.03
PSFS: LSMD versus Placebo ([1]; 0.5 mg dose, week 12): −0.4
PSFS: LSMD versus Placebo ([1]; 0.5 mg dose, week 16): −0.5
PSFS: LSMD versus Placebo ([1]; 0.5 mg dose, week 24): −0.05
PSFS: LSMD versus Placebo ([1]; 1.0 mg dose, week 4): −1.4
PSFS: LSMD versus Placebo ([1]; 1.0 mg dose, week 8): −0.9
PSFS: LSMD versus Placebo ([1]; 1.0 mg dose, week 12): −1.1
PSFS: LSMD versus Placebo ([1]; 1.0 mg dose, week 16): −0.9
PSFS: LSMD versus Placebo ([1]; 1.0 mg dose, week 24): −0.5
PSFS: ability to perform activities versus placebo ([1]; 1.0 mg dose, weeks 4-16): significantly improved
PGIC: Odds Ratio vs Placebo ([2]; 0.5 mg dose, week 4): 1.76
PGIC: proportion of patients reporting significant improvement in the index knee ([2]; 0.5 mg dose, week 4): 58%
PGIC: Odds Ratio vs Placebo ([2]; 0.5 mg dose, week 8): 1.89
PGIC: Odds Ratio vs Placebo ([2]; 0.5 mg dose, week 12): 2.75
PGIC: Odds Ratio vs Placebo ([2]; 0.5 mg dose, week 16): 2.37
PGIC: Odds Ratio vs Placebo ([2]; 0.5 mg dose, week 24): 1.68
PGIC: Odds Ratio vs Placebo ([2]; 1.0 mg dose, week 4): 2.34
PGIC: proportion of patients reporting significant improvement in the index knee ([2]; 1.0 mg dose, week 4): 64%
PGIC: Odds Ratio vs Placebo ([2]; 1.0 mg dose, week 8): 2.50
PGIC: Odds Ratio vs Placebo ([2]; 1.0 mg dose, week 12): 2.40
PGIC: Odds Ratio vs Placebo ([2]; 1.0 mg dose, week 16): 1.85
PGIC: Odds Ratio vs Placebo ([2]; 1.0 mg dose, week 24): 1.64
PGIC: likelihood of significant improvement compared with placebo ([2]; 1.0 mg dose, weeks 4, 8 and 12): greater than two-fold likelihood
WOMAC B score, LSMD versus placebo [3]: −2.1
WOMAC C score, LSMD versus placebo [3]: −14.8
All TEAEs ([4]; 0.5 mg dose IA (n = 34)): 16 (47) n (%)
Arthralgia ([4]; 0.5 mg dose IA (n = 34)): 3 (8.8) n (%)
Hepatic enzyme increased ([4]; 0.5 mg dose IA (n = 34)): 2 (5.9) n (%)
Influenza ([4]; 0.5 mg dose IA (n = 34)): 1 (2.9) n (%)
Joint effusion ([4]; 0.5 mg dose IA (n = 34)): 3 (8.8) n (%)
Nasopharyngitis ([4]; 0.5 mg dose IA (n = 34)): 1 (2.9) n (%)
Upper respiratory tract infection ([4]; 0.5 mg dose IA (n = 34)): 2 (5.9) n (%)
All TEAEs ([4]; 1.0 mg dose IA (n = 71)): 21 (30) n (%)
Arthralgia ([4]; 1.0 mg dose IA (n = 71)): 5 (7.0) n (%)
Hepatic enzyme increased ([4]; 1.0 mg dose IA (n = 71)): 1 (1.4) n (%)
Influenza ([4]; 1.0 mg dose IA (n = 71)): 2 (2.8) n (%)
Joint effusion ([4]; 1.0 mg dose IA (n = 71)): 0 n (%)
Nasopharyngitis ([4]; 1.0 mg dose IA (n = 71)): 2 (2.8) n (%)
Upper respiratory tract infection ([4]; 1.0 mg dose IA (n = 71)): 3 (4.2) n (%)
patients reporting mild pain (procedural pain rating) [4, 6]: 39%
patients reporting no pain (procedural pain rating) [4, 6]: 50%
Incidence of TEAEs ([4]; capsaicin 0.5 mg dose): 47%
TEAEs mild in severity ([4]; capsaicin 0.5 mg dose): 29%
TEAEs moderate in severity ([4]; capsaicin 0.5 mg dose): 18%
SAE ([4]; capsaicin 0.5 mg dose group, not considered treatment related): One SAE (shoulder pain from osteoarthritis)
Incidence of TEAEs ([4]; capsaicin 1.0 mg dose): 30%
TEAEs mild in severity ([4]; capsaicin 1.0 mg dose): 20%
TEAEs moderate in severity ([4]; capsaicin 1.0 mg dose): 9.9%
arthralgia (TEAE) ([4]; capsaicin 1.0 mg dose): 7.0%
arthralgia (TEAE) ([4]; capsaicin regardless of dose): 7.6%
upper respiratory tract infection (TEAE) ([4]; capsaicin regardless of dose): 4.8%
All TEAEs [4, 7]: 37 (35) n (%)
Arthralgia [4, 7]: 8 (7.6) n (%)
Hepatic enzyme increased [4, 7]: 3 (2.9) n (%)
Influenza [4, 7]: 3 (2.9) n (%)
Joint effusion [4, 7]: 3 (2.9) n (%)
Nasopharyngitis [4, 7]: 3 (2.9) n (%)
Upper respiratory tract infection [4, 7]: 5 (4.8) n (%)
tolerability / safety profile ([4]; single injection, 1.0 mg dose, up to 24 weeks, comparable to placebo): well tolerated

COc1cc(CNC(=O)CCCCC=CC(C)C)ccc1O [trans-capsaicin, N-[(4-hydroxy-3-methoxyphenyl)methyl]-8-methylnon-6-enamide]
reduction in average walking pain due to the intermetatarsal neuroma (NPRS) ([5]; four weeks after first dose, vs prior to first dose): 1.6 point
reduction in average walking pain due to the intermetatarsal neuroma (NPRS) ([5]; four weeks after second dose, vs just prior to second dose): 2.3 point
